Here are results for 27 compounds from US8450354B2, “Substituted imidazo[1,2-b]pyridazine derivatives, pharmaceutical compositions, and methods of use as β-secretase inhibitors” (High Point Pharmaceuticals, LLC, priority 2010, dated 2013).

One experiment concerns the target T1, BACE-1 enzyme (Homo sapiens, UniProt P56817).
T1 construct: purchased R & D Systems 931AS
Briefly: BACE Fluorescence Resonance Energy Transfer (FRET) Assay. Type of experiment: biochemical. To be noted: pH 4-4.5, 30 min pre-incubation, about 1.5 hours reaction, asterisk = mean. On the procedure: BACE Fluorescence Resonance Energy Transfer (FRET) Assay
In the following assay, the proteolytic activity of BACE is measured by observing cleavage of a fluorescent group from a peptide substrate containing a rhodamine fluorescent donor and a quenching acceptor.
The inhibitory activity of compounds of Formula (I) may be compared to a statine derived control inhibitor STA200 (MP Biomedical Cat. #STA-200). The cleavage reaction occurs when a BACE-1 substrate (Invitrogen, Cat. #P2986) was added to a reaction mixture containing BACE-1 enzyme (R & D Systems, Cat. #931AS) and allowed to proceed for about 1.5 hours. Fluorescence, used as a marker of BACE activity, is monitored using 540 nm excitation and 585 nm emission wavelengths (Envision, Perkin Elmer).
A typical assay reaction contains BACE-1 enzyme-in assay buffer (50 mM sodium acetate, pH 4-4.5, 0.01% CHAPS (3-[(3-Cholamidopropyl)dimethylammonio]-1-propanesulfonate), 0.0125% TritonX-100, 0.006% EDTA) which is pre-incubated for 30 minutes with test compound in 7.5% DMSO. The reaction is initiated with the addition of BACE-1 substrate in assay buffer and allowed to proceed for about 1.5 hours at room temperature. Assays are conducted in black 384-well microtiter plates and scanned at room temperature using 540 nm excitation and 585 nm emission wavelengths.
In some instances, the percent inhibition at a given concentration is reported instead of the IC50.

Experiment [1] can be described thus: Aβ Cell Based Assay (Aβ1-40 secretion, ELISA). The arrangement: species or system human. To be noted: Homo sapiens, HEK293; HEK-APPwt cells, 6 hours incubation, reduction of Aβ1-40 secretion; asterisk = mean. The method, then: Aβ Cell Based Assay Procedure
In the following assay, the proteolytic activity of BACE in cells exposed to varying concentrations of a compound of interest is measured by observing the amount of Aβ1-40 secreted from HEK293 cells (Human Embryonic Kidney epithelial cell line) stably expressing wildtype human APP695 protein (HEK-APPwt cells).
HEK-APPwt cells were grown in high glucose DMEM (Dulbecco's Modified Eagles Medium SIGMA Cat. #D5796) supplemented with 25 mM HEPES (4-(2-hydroxyethyl)-1-piperazineethanesulfonic acid) (pH 7.4) (Invitrogen Cat. #15630-114), 0.1 mM NEAA (Non-essential Amino Acids) (BioWhittaker Cat. #13-114E), 10% fetal bovine serum (SIGMA Cat. #F4135) and 250 μg/mL hygromycin (Invitrogen Cat. #10687-010) in T-225 flasks at 37° C. with 5% CO2 and humidity control.
Test compounds were initially prepared in DMSO and diluted with DMEM media containing 2% FBS (Fetal bovine serum). Ten standard compound solutions were prepared having a range of concentrations. The standard compound solutions were used to determine the EC50 of the test compound. The range of concentrations chosen may depend on the compound's predicted potency.
To prepare cells for the assay, a flask containing HEK-APPwt cells were trypsinized briefly (1 mL trypsin), and once the cells detached, 4 mL of 10% FBS-DMEM was added to the flask. The detached cells were centrifuged at 900 rpm for 5 min to form a pellet.
The HEK-APPwt cell pellet was re-suspended with 10 mL DMEM media containing 2% FBS. 80 μL of the cell suspension was added to each well of a 96-well cell culture plate to give 100×10^4 cells/ml. 10 μL of a standard compound solution was added to each well of the 96-well cell culture plate followed by 10 μL of Alamar blue solution. The cells were incubated at 37° C. in a 5% CO2 incubator for 6 hours.
At the end of the incubation, the plates were removed from incubator, and the supernatant was collected. Aβ1-40 concentration in the medium was measured by using a commercial Aβ1-X ELISA kit (IBL, Japan Cat. #27729). Briefly, the ELISA plates were coated with an anti-human Aβ (N)(82E1) mouse IgG monoclonal antibody. A horseradish peroxidase conjugated anti-human Aβ11-28 mouse IgG monoclonal antibody was used for detection. The cell culture supernatant was diluted with EIA buffer+protease inhibitors (kit buffer containing protease inhibitors (1 mL PI/30 mL buffer)). A 100 μL aliquot of the diluted supernatant was added to each well of the ELISA plate and incubated for 6 hrs at 4° C. The ELISA plate was washed 8 times with phosphate buffered saline (PBS) containing 0.05% TWEEN 20.
A 100 μL of detection antibody was then added and incubated for 1 hour at 4° C. The plate was washed 8 times with PBS buffer containing 0.05% Tween 20 followed by addition of 100 μL of the chromogen tetramethylbenzidine (TMB). The plate was incubated in the dark at room temperature for about 30 min and a stop solution (1N H2SO4) was added.
The intensity of the color developed was measured at 450 nm. The optical density at 450 nm (OD450) is proportional to the concentration of human Aβ1-40 secreted by the cell. As a reference, N—[N-(3,5-difluorophenacetyl-L-alanyl)]—S-phenylglycine t-butyl ester (DAPT, a γ-secretase inhibitor) was used to indicate 100% inhibition of […]. Thus, the assay measures the ability of a compound of interest to reduce Aβ1-40 secretion. Compound potency is reported in Table 3 as the EC50 by calculating the percent inhibition at all concentration levels and the data were fit with non-linear curve fitting algorithm using GraphPad Prism.

T1 sequence (P56817 46-457 limits assumed): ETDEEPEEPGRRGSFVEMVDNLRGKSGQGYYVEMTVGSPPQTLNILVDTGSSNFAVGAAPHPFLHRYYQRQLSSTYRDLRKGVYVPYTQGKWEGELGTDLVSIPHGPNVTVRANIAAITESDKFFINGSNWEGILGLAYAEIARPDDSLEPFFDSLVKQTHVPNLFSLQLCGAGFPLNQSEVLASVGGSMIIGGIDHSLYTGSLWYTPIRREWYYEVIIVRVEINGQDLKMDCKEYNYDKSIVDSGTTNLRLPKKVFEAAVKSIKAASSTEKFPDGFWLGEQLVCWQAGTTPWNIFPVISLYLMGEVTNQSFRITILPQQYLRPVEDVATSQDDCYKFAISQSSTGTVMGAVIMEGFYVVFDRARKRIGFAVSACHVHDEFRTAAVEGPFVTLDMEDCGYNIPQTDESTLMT

Turning to `C[C@H](O)CCOc1ccc2nc(C(=O)Nc3nc4cc(-c5cc(F)cc(Cl)c5)ccc4[nH]3)cn2n1` [Example 119], the IC50 on BACE-1 enzyme came to 0.298 µM. This compound had a concentration for a half-maximal effect (EC50) in experiment [1] of 0.77 µM.
The like results for `O=C(Nc1nc2cc(-c3cc(F)cc(Cl)c3)ccc2[nH]1)c1cn2nc(OCCCO)ccc2n1` [Example 113] were, in that order, 0.528 µM and 1.71 µM.
In turn, `O=C(Nc1nc2cc(-c3ccc(Cl)c(C(F)(F)F)c3)ccc2[nH]1)c1cn2nc(OCCN3CCOCC3)ccc2n1` [Example 64] gave an IC50 against BACE-1 enzyme of 0.22 µM. The compound also yielded an EC50 in experiment [1] of 0.97 µM.
The like results for `C[C@@H](O)CCOc1ccc2nc(C(=O)Nc3nc4cc(-c5cc(F)cc(Cl)c5)ccc4[nH]3)cn2n1` [Example 118] were, in that order, 0.318 µM and 1.06 µM.
The like results for `COC[C@H](COc1ccc2nc(C(=O)Nc3nc4cc(-c5cccc(C(F)(F)F)c5)ccc4[nH]3)cn2n1)OC` [Example 135] were, in that order, 0.117 µM and 0.45 µM.
Take `O=C(Nc1nc2cc(-c3cc(F)cc(Cl)c3)ccc2[nH]1)c1cn2nc(OCCN3CCOCC3)ccc2n1` [Example 50]: the IC50 at BACE-1 enzyme was determined as 0.267 µM. Also, the EC50 in experiment [1] turned out to be 0.58 µM.
As to `O=C(Nc1nc2cc(-c3cccc(C(F)(F)F)c3)ccc2[nH]1)c1cn2nc(OCCn3cncn3)ccc2n1` [Example 45], the IC50 against BACE-1 enzyme stood at 0.198 µM. The EC50 in experiment [1] was determined as 1.31 µM.
The like results for `O=C(Nc1nc2cc(-c3cc(F)cc(Cl)c3)ccc2[nH]1)c1cn2nc(OCCN3CCCCCC3)ccc2n1` [Example 53] were, in that order, 0.216 µM and 2.62 µM.
Compound `CC1(C)CCC(c2ccc3[nH]c(NC(=O)c4cn5nc(N6CC[C@@H](O)C6)ccc5n4)nc3c2)CC1` [Example 85] came in with an IC50 at BACE-1 enzyme of 0.089 µM. This compound also showed an EC50 in experiment [1] of 2.27 µM.
Turning to `CC[C@H](O)COc1ccc2nc(C(=O)Nc3nc4cc(-c5cc(F)cc(Cl)c5)ccc4[nH]3)cn2n1` [Example 106], it took 0.139 µM to reach half-maximal inhibition against BACE-1 enzyme (IC50). The EC50 in experiment [1] amounted to 0.86 µM.
On BACE-1 enzyme, `O=C(Nc1nc2cc(-c3cccc(OC(F)(F)F)c3)ccc2[nH]1)c1cn2nc(OC[C@H]3CC[C@@H](CO)O3)ccc2n1` [Example 134] registered an IC50 of 0.203 µM. The same compound displayed an EC50 in experiment [1] of 0.75 µM.
Take `O=C(Nc1nc2cc(-c3cc(F)cc(Cl)c3)ccc2[nH]1)c1cn2nc(N3CCC(O)CC3)ccc2n1` [Example 142, 6-(4-Hydroxy-piperidin-1-yl)-imidazo[1,2-b]pyridazine-2-carboxylic acid [5-(3-chloro-5-fluoro-phenyl)-1H-benzoimidazol-2-yl]-amide]: 0.134 µM corresponded to half-maximal inhibition at BACE-1 enzyme (IC50). In experiment [1], this compound returned an EC50 of 0.63 µM.
The matching figures for `O=C(Nc1nc2cc(-c3cccc(OC(F)(F)F)c3)ccc2[nH]1)c1cn2nc(OCCN3CCCCC3)ccc2n1` [Example 47]: 0.24 µM and 1.96 µM.
The matching figures for `O=C(Nc1nc2cc(-c3cc(F)cc(Cl)c3)ccc2[nH]1)c1cn2nc(OC3COC4C(O)COC34)ccc2n1` (stereo not drawn) [Example 133]: 0.262 µM and 0.56 µM.
The compound `O=C(Nc1nc2cc(-c3cccc(C(F)(F)F)c3)ccc2[nH]1)c1cn2nc(OCCN3CCCCCC3)ccc2n1` [Example 40] yielded an IC50 at BACE-1 enzyme of 0.307 µM. The EC50 in experiment [1] amounted to 2.68 µM.
Consider `CN1CCN(CCOc2ccc3nc(C(=O)Nc4nc5cc(-c6cccc(C(F)(F)F)c6)ccc5[nH]4)cn3n2)CC1` [Example 41], for which the IC50 against BACE-1 enzyme amounted to 0.232 µM. It took 2.62 µM to reach a half-maximal effect in experiment [1] (EC50).
Take `O=C(Nc1nc2cc(-c3cccc(C(F)(F)F)c3)ccc2[nH]1)c1cn2nc(OCCN3CCOCC3)ccc2n1` [Example 27, 6-(2-Morpholin-4-yl-ethoxy)-imidazol[1,2-b]pyridazine-2-carboxylic acid [5-(3-trifluoromethyl-phenyl)-1H-benzoimidazol-2-yl]-amide]: the IC50 against BACE-1 enzyme stood at 0.262 µM. The same compound registered a concentration giving a half-maximal response (EC50) in experiment [1] of 0.58 µM.
The matching figures for `CC1(C)CCC(c2ccc3[nH]c(NC(=O)c4cn5nc(N6CC[C@H](O)C6)ccc5n4)nc3c2)CC1` [Example 86]: 0.123 µM and 2.46 µM.
The like results for `CC(C)(O)CCOc1ccc2nc(C(=O)Nc3nc4cc(-c5cc(F)cc(Cl)c5)ccc4[nH]3)cn2n1` [Example 114] were, in that order, 0.279 µM and 0.33 µM.
The matching figures for `C[C@H](C[C@@H](C)O)Oc1ccc2nc(C(=O)Nc3nc4cc(-c5cccc(C(F)(F)F)c5)ccc4[nH]3)cn2n1` [Example 120, 6-((1R,3R)-3-hydroxy-1-methyl-butoxy)-imidazo[1,2-b]pyridazine-2-carboxylic acid [5-(3-trifluoromethyl-phenyl)-1H-benzoimidazol-2-yl]-amide]: 0.455 µM and 0.07 µM.
Take `CCC[C@@H](O)COc1ccc2nc(C(=O)Nc3nc4cc(-c5cc(F)cc(Cl)c5)ccc4[nH]3)cn2n1` [Example 124]: the midpoint of inhibition on BACE-1 enzyme, the IC50, lay at 0.419 µM. The compound also showed an EC50 in experiment [1] of 0.3 µM.
The matching figures for `CN(C)CCN(C)CCOc1ccc2nc(C(=O)Nc3nc4cc(-c5cccc(C(F)(F)F)c5)ccc4[nH]3)cn2n1` [Example 43]: 0.335 µM and 2.88 µM.
In turn, `CN(C)C(=O)COc1ccc2nc(C(=O)Nc3nc4cc(-c5cccc(C(F)(F)F)c5)ccc4[nH]3)cn2n1` [Example 141] had an IC50 on BACE-1 enzyme of 0.172 µM. In experiment [1], this compound registered a 50% effective concentration (EC50) of 1.3 µM.
The like results for `C[C@@H](O)[C@@H](C)Oc1ccc2nc(C(=O)Nc3nc4cc(-c5cccc(C(F)(F)F)c5)ccc4[nH]3)cn2n1` [Example 100] were, in that order, 0.26 µM and 0.7 µM.
The matching figures for `C[C@H](O)COc1ccc2nc(C(=O)Nc3nc4cc(-c5cccc(OC(F)(F)F)c5)ccc4[nH]3)cn2n1` [Example 145, 6-((S)-2-hydroxy-propoxy)-imidazo[1,2-b]pyridazine-2-carboxylic acid [5-(3-trifluoromethoxy-phenyl)-1H-benzoimidazol-2-yl]-amide]: 0.15 µM and 1.09 µM.
The like results for `C[C@@H](O)[C@@H](C)Oc1ccc2nc(C(=O)Nc3nc4cc(-c5cc(F)cc(Cl)c5)ccc4[nH]3)cn2n1` [Example 146, 6-((1R,2R)-2-hydroxy-1-methyl-propoxy)-imidazo[1,2-b]pyridazine-2-carboxylic acid [5-(3-chloro-5-fluoro-phenyl)-1H-benzoimidazol-2-yl]-amide] were, in that order, 0.376 µM and 0.11 µM.
As to `O=C(Nc1nc2cc(-c3cccc(OC(F)(F)F)c3)ccc2[nH]1)c1cn2nc(OCCN3CCCC3=O)ccc2n1` [Example 31], 0.313 µM corresponded to half-maximal inhibition on BACE-1 enzyme (IC50). This compound also came in with an EC50 in experiment [1] of 2.5 µM.
